Test results reported in ChEMBL document CHEMBL5338712, “Influence of chain length on the anticancer activity of the antimicrobial peptide CAMEL with fatty acid modification” (Eur J Med Chem, 2022).
The source made the active and inactive calls. The rule behind the calls is not given here.

Legend:
B16-F10 [1] = assay: Membrano-lytic activity in mouse B16-F10 cell membrane at 20 uM measured at 0.5 to 4 hrs by LDH leakage assay; type: cell-based; conditions: time 0.5-4 hrs
B16-F10 [2] = assay: Induction of ROS production in mouse B16-F10 cells at 10 uM measured for 0.5 to 4 hrs by DCFH-DA dye based microplate reader analysis; type: functional, cell-based; conditions: time 0.5-4 hrs
B16-F10 [3] = assay: Cytotoxicity against mouse B16-F10 cells assessed as induction of cell death measured for 4 to 24 hrs by MTT assay; type: functional, cell-based; conditions: time 4-24 hrs
B16-F10 [4] = assay: Induction of cell membrane disruption in mouse B16-F10 cells at 20 uM by PI staining based microplate reader assay; conditions: time 30.0 min, TDE = time-dependent effect
B16-F10 [5] = assay: Induction of mitochondrial membrane potential loss in mouse B16-F10 cells assessed as decrease in fluorescence intensity at 10 uM measured at 4 hrs by flow cytometry analysis; type: functional, cell-based
B16-F10 [6] = assay: Induction of cell membrane disruption in mouse B16-F10 cells at 20 uM measured for 30 mins by PI staining based microplate reader assay
B16-F10 [7] = assay: Induction of necroptosis in mouse B16-F10 cells assessed as increase in ROS level; type: functional, cell-based
B16-F10 [8] = assay: Induction of morphological changes in mouse B16-F10 cells assessed as cell rounding at 20 uM incubated for 30 mins by microscopic analysis; type: functional, cell-based
B16-F10 [9] = assay: Induction of cell cycle arrest in mouse B16-F10 cells assessed as accumulation at G0/G1 phase at 10 uM and measured after 24 hrs PI staining based by flow cytometry; type: functional
B16-F10 [10] = assay: Induction of morphological changes in mouse B16-F10 cells assessed as cell bursting at 20 uM incubated for 30 mins by microscopic analysis; type: functional, cell-based
trypsin = trypsin (Homo sapiens, UniProt P07477+P07478+P35030); assay: Stability of compound assessed as trypsin (unknown origin)-mediated compound degradation measured upto 6 hrs by RP-HPLC analysis; type: ADME, protein assay; conditions: trypsin (enzyme solution), read-out: Drug degradation
B16-F10 [11] = assay: Induction of apoptosis in mouse B16-F10 cells assessed as activation of caspase-3 incubated for 24 hrs by microplate reader analysis; type: functional, cell-based
B16-F10 [12] = assay: Induction of morphological changes in mouse B16-F10 cells assessed as cell swelling at 20 uM incubated for 30 mins by microscopic analysis; type: functional, cell-based
Staphylococcus aureus = assay: Antibacterial activity against Staphylococcus aureus ATCC […] assessed as reduction in bacterial growth measured for 18 hrs by serial dilution method; type: functional
B16-F10 [13] = assay: Disruption of membrane integrity in mouse B16-F10 cells at 10 uM measured after 1 hr by propidium iodide staining based laser scanning microscopic analysis; type: cell-based
B16-F10 [14] = assay: Induction of necrotic cell death in mouse B16-F10 at 10 uM measured after 1 to 24 hrs; type: functional, cell-based; conditions: time 1-24 hrs
B16-F10 [15] = assay: Induction of ROS production in mouse B16-F10 cells at 10 uM measured for 0.5 to 4 hrs by MitoSOX red dye based microplate reader analysis; type: functional, cell-based; conditions: time 0.5-4 hrs
B16-F10 [16] = assay: Induction of apoptosis in mouse B16-F10 cells assessed as decrease in ATP level; type: functional, cell-based
B16-F10 [17] = assay: Cytotoxicity against mouse B16-F10 cells assessed as reduction in cell viability measured after 1 hrs by MTT assay; type: functional, cell-based; conditions: dose 1.25-20 µM
B16-F10 [18] = assay: Induction of mitochondrial membrane potential loss in mouse B16-F10 cells assessed as decrease in fluorescence intensity at 10 uM measured at 0.5 to 4 hrs by flow cytometry analysis; type: functional, cell-based; conditions: time 0.5-4 hrs
B16-F10 [19] = assay: Membrano-lytic activity in mouse B16-F10 cell membrane at 1.25 to 20 uM measured after 4 hr by LDH leakage assay; type: cell-based; conditions: dose 1.25-20 µM
B16-F10 [20] = assay: Membrano-lytic activity in mouse B16-F10 cell membrane measured after 1 hr by LDH leakage assay; type: cell-based; conditions: dose 1.25-20 µM
B16-F10 [21] = assay: Antitumor activity against mouse B16-F10 cells implanted in intratumorally dosed C57BL/6 mouse assessed as reduction in tumor volume administered for 3 days by vernier caliper method; type: functional, organism-based; conditions: time 3.0 day
B16-F10 [22] = assay: Membrano-lytic activity in mouse B16-F10 cell membrane at 20 uM measured after 0.5 hr by LDH leakage assay; type: cell-based
B16-F10 [23] = assay: Induction of necroptosis in mouse B16-F10 cells assessed as cell death at 5 to 20 uM measured for 4 to 24 hrs in presence of Nec-1; type: functional, cell-based; conditions: dose 5-20 µM, time 4-24 hrs
[24] = Toxicity in C57BL/6 […] mouse implanted with mouse B16-F10 cells assessed as animal death administered intratumorally; type: cell-based; conditions: in vivo, other, route it(Intratumoral)
B16-F10 [25] = assay: Antiproliferative activity against mouse B16-F10 cells assessed as inhibition of cell viability by measuring ATP level at 10 uM measured for 4 to 24 hrs; type: functional, cell-based; conditions: time 4-24 hrs
Escherichia coli = assay: Antibacterial activity against Escherichia coli ATCC 25922 assessed as reduction in bacterial growth measured for 18 hrs by serial dilution method; type: functional
B16-F10 [26] = assay: Cytotoxicity against mouse B16-F10 cells assessed as reduction in cell viability at 1.25 to 20 uM measured after 24 hrs by MTT assay; type: functional, cell-based; conditions: dose 1.25-20 µM

H-KWKLFKKIGAVLKVL-NH2
Activity (B16-F10 [1]): inactive | Activity (B16-F10 [2]): Active | Activity (B16-F10 [3]): inactive | Activity (B16-F10 [4]): Tde | Activity (B16-F10 [5]): inactive | Activity (B16-F10 [6]): Active | Activity (B16-F10 [7]): Active | Activity (B16-F10 [8]): Active | Activity (B16-F10 [9]): inactive | Activity (B16-F10 [10]): Active | metabolised at 6 h (trypsin): 100% | Activity (B16-F10 [11]): inactive | Activity (B16-F10 [12]): Active | MIC (Staphylococcus aureus): 4 µM | Activity (B16-F10 [13]): Active | Activity (B16-F10 [14]): Active | Activity (B16-F10 [15]): Active | Activity (B16-F10 [16]): inactive | Activity (B16-F10 [17]): Dose-Dependent Effect | Activity (B16-F10 [18]): Active | Activity (B16-F10 [19]): Active | Activity (B16-F10 [20]): Dose-Dependent Effect | Activity (B16-F10 [21]): Active | Activity (B16-F10 [22]): Active | Activity (B16-F10 [23]): Active | Activity [24]: Non-Toxic | Activity (B16-F10 [25]): Active | MIC (Escherichia coli): 32 µM | Activity (B16-F10 [26]): Active
